Source: article PMC5218480 (PLoS ONE, 2017)

System: MV-4-11 cells
Test: Gene expression microarray analysis (Affymetrix PrimeView) and GSEA
Assay type: cell-based, human
Parameters: RFU PODN (11730768_x_at) / Fold change /veh PODN (11730768_x_at) / RFU LINC00158 (11744669_a_at) / Fold change /veh LINC00158 (11744669_a_at) / RFU DUSP10 (11751237_a_at) / Fold change /veh DUSP10 (11751237_a_at) / RFU ID3 (11757404_x_at) / Fold change /veh ID3 (11757404_x_at) / RFU PLEKHG5 (11737974_s_at) / Fold change /veh PLEKHG5 (11737974_s_at) / RFU LRRC4B (11730491_at) / Fold change /veh LRRC4B (11730491_at) / RFU GIMAP4 (11747438_a_at) / Fold change /veh GIMAP4 (11747438_a_at) / RFU KRT8 (11758183_x_at) / Fold change /veh KRT8 (11758183_x_at) / RFU CNN1 (11734310_a_at) / Fold change /veh CNN1 (11734310_a_at) / RFU VPS37D (11726825_at) / Fold change /veh VPS37D (11726825_at) / RFU C10orf10 (11716522_x_at) / Fold change /veh C10orf10 (11716522_x_at) / RFU KIR2DL2 /// KIR2DL4 /// KIR2DL5A /// KIR2DL5B /// KIR2DS1 /// KIR2DS2 /// KIR2DS3 /// KIR2DS4 /// KIR3DL3 /// KIR3DL3 /// KIR3DS1 (11738374_at) / Fold change /veh KIR2DL2 /// KIR2DL4 /// KIR2DL5A /// KIR2DL5B /// KIR2DS1 /// KIR2DS2 /// KIR2DS3 /// KIR2DS4 /// KIR3DL3 /// KIR3DL3 /// KIR3DS1 (11738374_at) / RFU C1QL1 (11718748_at) / Fold change /veh C1QL1 (11718748_at) / RFU TMPRSS4 (11747572_a_at) / Fold change /veh TMPRSS4 (11747572_a_at) / RFU HAMP (11756126_x_at) / Fold change /veh HAMP (11756126_x_at) / RFU RNFT2 (11725882_a_at) / Fold change /veh RNFT2 (11725882_a_at) / RFU NR4A2 (11747474_a_at) / Fold change /veh NR4A2 (11747474_a_at) / RFU ABCC12 (11746883_a_at) / Fold change /veh ABCC12 (11746883_a_at) / RFU TMEM136 (11760407_x_at) / Fold change /veh TMEM136 (11760407_x_at) / RFU CLDN22 /// WWC2 (11732394_at) / Fold change /veh CLDN22 /// WWC2 (11732394_at) / RFU HLA-DPB1 (11760878_x_at) / Fold change /veh HLA-DPB1 (11760878_x_at) / RFU SPINT1 (11716480_a_at) / Fold change /veh SPINT1 (11716480_a_at) / RFU GAP43 (11754022_s_at) / Fold change /veh GAP43 (11754022_s_at) / RFU A4GNT (11735810_at) / Fold change /veh A4GNT (11735810_at) / RFU PRB3 (11715151_x_at) / Fold change /veh PRB3 (11715151_x_at) / RFU TUBB4B (11761932_at) / Fold change /veh TUBB4B (11761932_at) / RFU CAPN14 (11732068_a_at) / Fold change /veh CAPN14 (11732068_a_at) / RFU TMCC2 (11721928_a_at) / Fold change /veh TMCC2 (11721928_a_at) / RFU IRGQ (11745062_a_at) / Fold change /veh IRGQ (11745062_a_at) / RFU FAM174B (11720279_a_at) / Fold change /veh FAM174B (11720279_a_at) / RFU TMPRSS4 (11748680_a_at) / Fold change /veh TMPRSS4 (11748680_a_at) / RFU FAM212B (11763350_a_at) / Fold change /veh FAM212B (11763350_a_at) / RFU PLEKHG5 (11743358_a_at) / Fold change /veh PLEKHG5 (11743358_a_at) / RFU ZSCAN30 (11745921_a_at) / Fold change /veh ZSCAN30 (11745921_a_at) / RFU CMKLR1 (11741424_a_at) / Fold change /veh CMKLR1 (11741424_a_at) / RFU LOC101060620 /// MAPK8IP1 (11723275_at) / Fold change /veh LOC101060620 /// MAPK8IP1 (11723275_at) / RFU SPTSSB (11747773_x_at) / Fold change /veh SPTSSB (11747773_x_at) / RFU PRSS12 (11739890_at) / Fold change /veh PRSS12 (11739890_at) / RFU BIN1 (11741810_x_at) / Fold change /veh BIN1 (11741810_x_at) / RFU WNT11 (11732464_a_at) / Fold change /veh WNT11 (11732464_a_at) / RFU C10orf10 (11716521_a_at) / Fold change /veh C10orf10 (11716521_a_at) / RFU C5orf56 (11738089_at) / Fold change /veh C5orf56 (11738089_at) / RFU CYB561 (11721691_x_at) / Fold change /veh CYB561 (11721691_x_at) / RFU ANKRD19P (11752326_a_at) / Fold change /veh ANKRD19P (11752326_a_at) / RFU OR2T12 /// OR2T33 /// OR2T8 (11738714_s_at) / Fold change /veh OR2T12 /// OR2T33 /// OR2T8 (11738714_s_at) / RFU VCAN (11748164_a_at) / Fold change /veh VCAN (11748164_a_at) / RFU JSRP1 (11732532_at) / Fold change /veh JSRP1 (11732532_at) / RFU KRTAP10-11 (11738290_x_at) / Fold change /veh KRTAP10-11 (11738290_x_at) / RFU MYO3A (11730013_a_at) / Fold change /veh MYO3A (11730013_a_at) / RFU EBF3 (11725865_a_at) / Fold change /veh EBF3 (11725865_a_at) / RFU CAMK2N1 (11719241_x_at) / Fold change /veh CAMK2N1 (11719241_x_at) / RFU C5orf56 (11738088_a_at) / Fold change /veh C5orf56 (11738088_a_at) / RFU OLFML3 (11715873_a_at) / Fold change /veh OLFML3 (11715873_a_at) / RFU LOC100653217 /// NTM (11731650_a_at) / Fold change /veh LOC100653217 /// NTM (11731650_a_at) / RFU MAPK11 (11762145_a_at) / Fold change /veh MAPK11 (11762145_a_at) / RFU FIZ1 (11724087_x_at) / Fold change /veh FIZ1 (11724087_x_at) / RFU OASL (11726364_x_at) / Fold change /veh OASL (11726364_x_at) / RFU SOX15 (11748057_x_at) / Fold change /veh SOX15 (11748057_x_at) / RFU CD79A (11719716_a_at) / Fold change /veh CD79A (11719716_a_at) / RFU HIST1H1D (11736915_at) / Fold change /veh HIST1H1D (11736915_at) / RFU CASKIN2 (11723855_a_at) / Fold change /veh CASKIN2 (11723855_a_at) / RFU LOC730098 (11760151_x_at) / Fold change /veh LOC730098 (11760151_x_at) / RFU OR4N2 (11742367_at) / Fold change /veh OR4N2 (11742367_at) / RFU PRRT2 (11749266_a_at) / Fold change /veh PRRT2 (11749266_a_at) / RFU SNX32 (11753110_a_at) / Fold change /veh SNX32 (11753110_a_at) / RFU CDHR5 (11726645_a_at) / Fold change /veh CDHR5 (11726645_a_at) / RFU RCAN1 (11760418_a_at) / Fold change /veh RCAN1 (11760418_a_at) / RFU FAM167A (11723789_a_at) / Fold change /veh FAM167A (11723789_a_at) / RFU FAM26E (11764081_at) / Fold change /veh FAM26E (11764081_at) / RFU ISYNA1 (11749810_s_at) / Fold change /veh ISYNA1 (11749810_s_at) / RFU ACY1 (11761880_at) / Fold change /veh ACY1 (11761880_at) / RFU 11764098_at / Fold change /veh 11764098_at / RFU SAMD14 (11745864_x_at) / Fold change /veh SAMD14 (11745864_x_at) / RFU NPB (11741838_a_at) / Fold change /veh NPB (11741838_a_at) / RFU TMPRSS6 (11731388_a_at) / Fold change /veh TMPRSS6 (11731388_a_at) / RFU KRTAP10-2 (11738614_at) / Fold change /veh KRTAP10-2 (11738614_at) / RFU ARHGAP8 /// PRR5-ARHGAP8 (11727945_x_at) / Fold change /veh ARHGAP8 /// PRR5-ARHGAP8 (11727945_x_at) / RFU KRTAP5-7 /// NADSYN1 (11734609_at) / Fold change /veh KRTAP5-7 /// NADSYN1 (11734609_at) / RFU RASL12 (11751679_a_at) / Fold change /veh RASL12 (11751679_a_at) / RFU CDKN2B (11736163_a_at) / Fold change /veh CDKN2B (11736163_a_at) / RFU PRF1 (11729649_at) / Fold change /veh PRF1 (11729649_at) / RFU, ZNF638 /// ZNF638-IT1 / Fold change vs veh, ZNF638 /// ZNF638-IT1 / RFU, PANK3 / Fold change vs veh, PANK3 / RFU, SH3YL1 / Fold change vs veh, SH3YL1 / RFU, ZEB2 / Fold change vs veh, ZEB2 / RFU, NRIP1 / Fold change vs veh, NRIP1 / RFU, PTTG1IP / Fold change vs veh, PTTG1IP / RFU, CAPN2 / Fold change vs veh, CAPN2 / RFU, MED14 / Fold change vs veh, MED14 / RFU, SNORA58 / Fold change vs veh, SNORA58 / RFU, C1orf63 / Fold change vs veh, C1orf63 / RFU, LRRFIP1 / Fold change vs veh, LRRFIP1 / RFU, NDUFAF7 / Fold change vs veh, NDUFAF7 / RFU, SLC12A2 / Fold change vs veh, SLC12A2 / RFU, IBTK / Fold change vs veh, IBTK / RFU, ESF1 / Fold change vs veh, ESF1 / Fold change vs veh, TMEM50B / RFU, TAOK1 / Fold change vs veh, TAOK1 / RFU, ACBD3 / Fold change vs veh, ACBD3 / RFU, TMA16 / Fold change vs veh, TMA16 / RFU, RWDD3 / Fold change vs veh, RWDD3 / RFU, BCAT1 / Fold change vs veh, BCAT1 / RFU, EDEM3 / Fold change vs veh, EDEM3 / RFU, TMEM33 / Fold change vs veh, TMEM33 / RFU, WDR75 / Fold change vs veh, WDR75 / RFU, AHCTF1 / Fold change vs veh, AHCTF1 / RFU, TFRC / Fold change vs veh, TFRC / RFU, ZDHHC17 / Fold change vs veh, ZDHHC17 / RFU, NOM1 / Fold change vs veh, NOM1 / RFU, ARL8B / Fold change vs veh, ARL8B / RFU, ZBTB11 / Fold change vs veh, ZBTB11 / RFU, TAMM41 / Fold change vs veh, TAMM41 / RFU, KIAA1704 /// LOC100996395 / Fold change vs veh, KIAA1704 /// LOC100996395 / RFU, ING1 / Fold change vs veh, ING1 / RFU, TRMT61B / Fold change vs veh, TRMT61B / RFU, FUBP3 / Fold change vs veh, FUBP3 / RFU, TP53 / Fold change vs veh, TP53 / RFU, TNKS2 / Fold change vs veh, TNKS2 / RFU, ZFP14 / Fold change vs veh, ZFP14 / RFU, ACTR2 / Fold change vs veh, ACTR2 / RFU, PPP3R1 / Fold change vs veh, PPP3R1 / RFU, PIK3R1 / Fold change vs veh, PIK3R1 / RFU, HNRNPA1 / Fold change vs veh, HNRNPA1 / RFU, RNF170 / Fold change vs veh, RNF170 / RFU, ZNF28 / Fold change vs veh, ZNF28 / RFU, RNGTT / Fold change vs veh, RNGTT / RFU, OGT / Fold change vs veh, OGT / RFU, BRD1 / Fold change vs veh, BRD1 / RFU, MARS / Fold change vs veh, MARS / RFU, ZNF655 / Fold change vs veh, ZNF655 / RFU, FAHD1 / Fold change vs veh, FAHD1 / RFU, BDP1 / Fold change vs veh, BDP1 / RFU, LRRCC1 / Fold change vs veh, LRRCC1 / RFU, ARID1A / Fold change vs veh, ARID1A / RFU, ZNF146 / Fold change vs veh, ZNF146 / RFU, ZNF330 / Fold change vs veh, ZNF330 / RFU, GPN3 / Fold change vs veh, GPN3 / RFU, C9orf123 / Fold change vs veh, C9orf123 / RFU, N4BP2L2 / Fold change vs veh, N4BP2L2 / RFU, ARFIP1 / Fold change vs veh, ARFIP1 / RFU, FAM179B / Fold change vs veh, FAM179B / RFU, BCL10 / Fold change vs veh, BCL10 / RFU, UHRF1BP1L / Fold change vs veh, UHRF1BP1L / RFU, BET1 / Fold change vs veh, BET1 / RFU, CNOT2 / Fold change vs veh, CNOT2 / RFU, ZNF268 / Fold change vs veh, ZNF268 / Fold change vs veh, ZNF507 / RFU, DGCR2 / Fold change vs veh, DGCR2 / RFU, WDSUB1 / Fold change vs veh, WDSUB1 / Fold change vs veh, HSP90B1 /// MIR3652 / RFU, ADSS / Fold change vs veh, ADSS / RFU, GK / Fold change vs veh, GK / RFU, ZNF148 / Fold change vs veh, ZNF148 / RFU, TAF9 / Fold change vs veh, TAF9 / RFU, SLC1A5 / Fold change vs veh, SLC1A5 / RFU, SLMO2 / Fold change vs veh, SLMO2 / RFU, ABCC4 / Fold change vs veh, ABCC4 / RFU, LOC101060439 /// RAP1B / Fold change vs veh, LOC101060439 /// RAP1B / RFU, RFX7 / Fold change vs veh, RFX7 / RFU, GTPBP10 / Fold change vs veh, GTPBP10 / RFU, CNEP1R1 / Fold change vs veh, CNEP1R1 / RFU, BIVM-ERCC5 /// ERCC5 / Fold change vs veh, BIVM-ERCC5 /// ERCC5 / RFU, ILF3 / Fold change vs veh, ILF3 / RFU 11762660_at / Fold change /veh 11762660_at / RFU VCAN (11757783_s_at) / Fold change /veh VCAN (11757783_s_at) / RFU DDX43 (11728927_at) / Fold change /veh DDX43 (11728927_at) / RFU KRT8 (11758188_x_at) / Fold change /veh KRT8 (11758188_x_at) / RFU NKD1 (11759106_at) / Fold change /veh NKD1 (11759106_at) / RFU SRD5A1 (11742802_a_at) / Fold change /veh SRD5A1 (11742802_a_at) / RFU TPSAB1 /// TPSB2 (11721975_s_at) / Fold change /veh TPSAB1 /// TPSB2 (11721975_s_at) / RFU GSTM3 (11746129_a_at) / Fold change /veh GSTM3 (11746129_a_at) / RFU IL23R (11737362_x_at) / Fold change /veh IL23R (11737362_x_at) / RFU TMEM51 (11727254_a_at) / Fold change /veh TMEM51 (11727254_a_at) / RFU PIWIL2 (11732686_x_at) / Fold change /veh PIWIL2 (11732686_x_at) / RFU ORM1 (11744905_x_at) / Fold change /veh ORM1 (11744905_x_at) / RFU CCDC152 (11743942_at) / Fold change /veh CCDC152 (11743942_at) / RFU ECM1 (11717891_a_at) / Fold change /veh ECM1 (11717891_a_at) / RFU IL23R (11748794_a_at) / Fold change /veh IL23R (11748794_a_at) / RFU TNFAIP8L3 (11732012_x_at) / Fold change /veh TNFAIP8L3 (11732012_x_at) / RFU MBOAT4 (11741988_at) / Fold change /veh MBOAT4 (11741988_at) / RFU 11764193_at / Fold change /veh 11764193_at / RFU TMEM53 (11763286_at) / Fold change /veh TMEM53 (11763286_at) / RFU MAGEB2 (11727129_at) / Fold change /veh MAGEB2 (11727129_at) / RFU TMEM200A (11744735_a_at) / Fold change /veh TMEM200A (11744735_a_at) / RFU CCDC152 (11751479_a_at) / Fold change /veh CCDC152 (11751479_a_at) / RFU FAM211A (11726209_a_at) / Fold change /veh FAM211A (11726209_a_at) / RFU RGS16 (11746705_a_at) / Fold change /veh RGS16 (11746705_a_at) / RFU VCAN (11755009_s_at) / Fold change /veh VCAN (11755009_s_at) / RFU RHOB (11743442_s_at) / Fold change /veh RHOB (11743442_s_at) / RFU RGS16 (11720943_a_at) / Fold change /veh RGS16 (11720943_a_at) / RFU RGS16 (11720944_at) / Fold change /veh RGS16 (11720944_at) / RFU, VPS4B / Fold change vs veh, VPS4B / RFU, CREB1 / Fold change vs veh, CREB1 / RFU, DNAJC13 / Fold change vs veh, DNAJC13 / RFU, GNAQ / Fold change vs veh, GNAQ / RFU, CDK5R1 / Fold change vs veh, CDK5R1 / RFU, ZRANB3 / Fold change vs veh, ZRANB3 / RFU, CUL4A / Fold change vs veh, CUL4A / RFU, CCNY / Fold change vs veh, CCNY / RFU, UFL1 / Fold change vs veh, UFL1 / RFU, COG3 / Fold change vs veh, COG3 / RFU, DIAPH2 / Fold change vs veh, DIAPH2 / RFU, SKA2 / Fold change vs veh, SKA2 / RFU, AFF3 / Fold change vs veh, AFF3 / RFU, LMF1 / Fold change vs veh, LMF1 / RFU, IPO11 / Fold change vs veh, IPO11 / RFU, DFFB / Fold change vs veh, DFFB / RFU, FOXP1 / Fold change vs veh, FOXP1 / RFU, CARD8 / Fold change vs veh, CARD8 / RFU, STRN3 / Fold change vs veh, STRN3 / RFU, ADK / Fold change vs veh, ADK / RFU, RASSF2 / Fold change vs veh, RASSF2 / RFU, WIPF1 / Fold change vs veh, WIPF1 / RFU, LARP1B / Fold change vs veh, LARP1B / RFU, RASA1 / Fold change vs veh, RASA1 / RFU, RB1 / Fold change vs veh, RB1 / RFU, PPFIA1 / Fold change vs veh, PPFIA1 / RFU, MAT2A / Fold change vs veh, MAT2A / RFU, CCT5 / Fold change vs veh, CCT5 / RFU, WDR92 / Fold change vs veh, WDR92 / RFU, CUX1 / Fold change vs veh, CUX1 / RFU, TTC7A / Fold change vs veh, TTC7A / RFU, TMEM135 / Fold change vs veh, TMEM135 / RFU, DEPTOR / Fold change vs veh, DEPTOR / RFU, CPM / Fold change vs veh, CPM / RFU, DNAJB6 / Fold change vs veh, DNAJB6 / RFU, CACNA2D3 / Fold change vs veh, CACNA2D3 / RFU, DTX4 / Fold change vs veh, DTX4 / RFU, TFCP2 / Fold change vs veh, TFCP2 / RFU, GMCL1 /// GMCL1P1 / Fold change vs veh, GMCL1 /// GMCL1P1 / RFU, AEBP2 / Fold change vs veh, AEBP2 / RFU, SNHG1 /// SNORD22 /// SNORD25 /// SNORD26 /// SNORD27 /// SNORD28 /// SNORD29 /// SNORD31 / Fold change vs veh, SNHG1 /// SNORD22 /// SNORD25 /// SNORD26 /// SNORD27 /// SNORD28 /// SNORD29 /// SNORD31 / Fold change (Aza/veh), C12orf56 (ProbeSet 11735607_a_at) / Fold change (ACY-1035/veh), C12orf56 (ProbeSet 11735607_a_at) / Fold change (Aza/veh), FGFR1OP (ProbeSet 11751329_s_at) / Fold change (ACY-1035/veh), FGFR1OP (ProbeSet 11751329_s_at) / Fold change (Aza/veh), VPS36 (ProbeSet 11739960_a_at) / Fold change (ACY-1035/veh), VPS36 (ProbeSet 11739960_a_at) / RFU SYPL1 (11715823_x_at) / Fold change /veh SYPL1 (11715823_x_at) / RFU IGFBP7 (11715501_s_at) / Fold change /veh IGFBP7 (11715501_s_at) / RFU REEP3 (11722064_at) / Fold change /veh REEP3 (11722064_at) / RFU IGLL1 (11728026_x_at) / Fold change /veh IGLL1 (11728026_x_at): dose or concentration left out as unconfirmed
Conditions: MV-4-11 cells, 48 hours

SMILES: Nc1ncn([C@@H]2O[C@H](CO)[C@@H](O)[C@H]2O)c(=O)n1 [azacitidine]
- RFU TUBB4B (11761932_at): 18.89 RFU
